In ChEMBL document CHEMBL5226329, “Synthetic and computational efforts towards the development of peptidomimetics and small-molecule SARS-CoV 3CLpro inhibitors” (Bioorg Med Chem, 2021):
Where a SMILES comes first, the peptide text is derived from it. The star is where a group is joined. Cbz = O=C(OCc1ccccc1)*; CF3 = FC(F)(F)*

How the values were obtained:
[1] = Inhibition of recombinant Hepatitis A virus proteinase 3C using Ac-Leu-Ala-Ala-OH as a substrate expressed in Escherichia coli incubated for 15 mins by SDS-PAGE assay; set-up: species or system Hepatovirus A
[2] = Inhibition of Severe acute respiratory syndrome coronavirus proteinase 3C using Abz-SVTLQSG-Tyr(NO2)R peptide as a substrate; set-up: species or system Severe acute respiratory syndrome-related coronavirus
[3] = Inhibition of Severe acute respiratory syndrome coronavirus proteinase 3C using EDANS-Val-Asn-Ser-Thr-Leu-Gln-Ser-Gly-Leu-Arg-Lys-(Dabcyl)-Met substrate incubated for 1 hr by fluorescence based assay; set-up: species or system Severe acute respiratory syndrome-related coronavirus
[4] = Inhibition of Severe acute respiratory syndrome coronavirus proteinase 3C assessed as inhibition constant by spectrophotometry assay; set-up: species or system Severe acute respiratory syndrome-related coronavirus
[5] = Inhibition of Severe acute respiratory syndrome coronavirus proteinase 3C by FRET assay; set-up: species or system Severe acute respiratory syndrome-related coronavirus
[6] = Inhibition of Severe acute respiratory syndrome coronavirus proteinase 3C using Dabcy-KTSAVLQSGFRKME-Edans peptide as a substrate incubated for 10 mins by fluorescence based assay; set-up: species or system Severe acute respiratory syndrome-related coronavirus
[7] = Inhibition of Severe acute respiratory syndrome coronavirus proteinase 3C using (Dabcyl-KTSAVLQSGFRKME-Edans peptide as a substrate by fluorescence based assay; set-up: species or system Severe acute respiratory syndrome-related coronavirus
[8] = Inhibition of Severe acute respiratory syndrome coronavirus proteinase 3C using (Dabcyl-KTSAVLQSGFRKME-Edans peptide as a substrate assessed as inhibition constant by fluorescence based assay; set-up: species or system Severe acute respiratory syndrome-related coronavirus
[9] = Inhibition of Severe acute respiratory syndrome coronavirus proteinase 3C using Dabcy-KTSAVLQSGFRKME-Edans peptide as a substrate; set-up: species or system Severe acute respiratory syndrome-related coronavirus

## CC(=O)N[C@@H](CC(C)C)C(=O)N[C@@H](C)C(=O)N[C@@H](C)C(=O)N[C@@H](C[C@@H]1CCNC1=O)C(=O)Cn1[nH]c(=O)c2c([N+](=O)[O-])cccc2c1=O
[1]
  IC50: 1600 nM

## CC(=O)N[C@H](C(=O)N[C@H](C(=O)N[C@@H](CC(C)C)C(=O)N[C@@H](C[C@@H]1CCNC1=O)C(=O)Cn1[nH]c(=O)c2c([N+](=O)[O-])cccc2c1=O)C(C)OCc1ccccc1)C(C)C (stereo not given in full)
[2]
  IC50: 600 nM

## CN(C)CCCSc1ccccc1NC(=O)/C=C/c1ccccc1 [CINANSERIN]
[3]
  IC50: 19000 nM

## CC(C)C[C@H](NC(=O)[C@@H](NC(=O)OCc1ccccc1)C(C)C)C(=O)N[C@@H](CCC(=O)O)C(=O)C(F)(F)F (Cbz-Val-Leu-Glu-CF3)
[4]
  Ki: 116000 nM

## O=C(/C=C/c1ccccc1)Nc1ccccc1SC(=O)/C=C/c1ccccc1
[5]
  IC50: 1060 nM
[6]
  IC50: 1060 nM

## CN(C)c1ccc(C(=O)N[C@@H](Cc2ccccc2)C(=O)Nc2ccc([N+](=O)[O-])cc2Cl)cc1
[7]
  IC50: 60 nM
[8]
  Ki: 30 nM

## CC(=O)N[C@@H](CC(C)C)C(=O)N[C@@H](C)C(=O)N[C@@H](C)C(=O)N[C@@H](CCC(=O)N(C)C)C(=O)Cn1[nH]c(=O)c2ccccc2c1=O
[1]
  IC50: 13000 nM

## O=C[C@H](C[C@@H]1CCNC1=O)NC(=O)[C@H](Cc1ccccc1)NC(=O)/C=C/c1ccc(Cl)cc1F
[9]
  IC50: 200 nM
